Measurements from patent US8563715B2, “Pyrimidine derivative having cell protecting effect and uses thereof” (Zenyaku Kogyo Kabushikikaisha, priority 2008, dated 2013).

Key:
[1] = test system: rat brain homogenate (lipid peroxide production); experiment: Antioxidant activity test (rat brain homogenate autoxidation test); type: biochemical; details: lipid peroxide production suppression, 2 hours at 37 degrees Celsius, thiobarbituric acid method
Protocol: The cerebrum was removed from 7 to 11 week old male Wistar rats (Nihon Ikagaku) or male Sprague-Dawley (IGS) rats (Charles River), physiological saline was added, and a 20% brain homogenate was made. 4 μl of test compound dissolved in DMSO was mixed with 200 μl of brain homogenate and 200 μl of PBS (−) (diluted 100 times), incubated for 2 hours at 37 degrees Celsius and shaken at a rate of 160 times per minute, thereby producing a lipid peroxide. After cooling for 5 minutes, the produced lipid peroxide was measured as a thiobarbituric acid reactive substance by using the thiobarbituric acid method. Briefly, 100 μl of 8.1% dodecyl sulfate, 750 μl of 20% acetic acid adjusted to a pH of 3.5, and 750 μl of 0.8% thiobarbituric acid were added, and boiled for 60 minutes, and then cooled. Next, 500 μl of distilled water and 2.5 ml of N-butanol/pyridine (15:1) were added and after 5 minutes of shaking, the supernatant was taken after centrifuging for 10 minutes at 3000 rpm, and the absorbance at 532 nm was measured. The number of examples was 2 examples. Calculation was done of the (absorbance at each concentration/absorbance of a solvent control)×100, and after logit transformation, the lipid peroxide production suppression effect (IC 50 value) was calculated as an indicator of antioxidant activity.

[2] = test system: astrocyte/neuron co-culture; experiment: Brain cell damage induced by hydrogen peroxide treatment (LDH assay); type: cell-based; details: Rattus norvegicus, hydrogen peroxide (250 μM), 24 hours, read-out: 50% inhibition concentration against cell damage in entire co-culture system (EC50 value)
Protocol: (§1) The brain was removed from 1 to 2 day old Wistar rats (Charles River) or Sprague-Dawley (IGS) rats (Charles River), and the cerebral cortex including the hippocampus was excised under ice cooling. After this cerebral cortex was minced, it was digested with papain solution (9 U/ml) containing DNase I (30 U/ml) at 37 degrees Celsius for 15 minutes, dispersing the cells. After further carrying out mechanical dispersing by pipetting, it was passed through a cell strainer with a pore size of 70 μm, and a cell suspension was obtained. Cells derived from 1.4 cerebra were seeded on 150 mm tissue culture dish (Iwaki Glass), and primary culture was carried out at 37 degrees Celsius and 5% CO2 using a D-MEM medium (Invitrogen) containing 10% heat-inactivated fetal calf serum (JRH). One day after the start of the culture, the nonadherent cells were removed, and the primary cultured astrocytes were obtained by continuing the culture for 4 to 5 further days. The primary cultured astrocytes were dispersed by trypsin treating, suspended in cryopreservation solution, and cryopreserved.
(§2) After thawing the cryopreserved primary cultured astrocytes, they were seeded on tissue culture plates (Iwaki Glass), and a confluent astrocyte layer was produced by a further 7 days of secondary culture using a D-MEM medium containing 10% heat-inactivated fetal calf serum. Neurons to be used in the co-culture with the astrocyte layer were obtained from fetal rat cerebrum. Briefly, brains were removed from Wistar rats (Charles River) or Sprague-Dawley (IGS) rats (Charles River) of embryonic age 18.5 days, and the cerebral cortex including the hippocampus was excised under ice cooling. After this cerebral cortex was minced, it was digested in papain solution (9 U/ml) containing DNase I (30 U/ml) at 37 degrees Celsius for 15 minutes, dispersing the cells. After further carrying out mechanical dispersing by pipetting, it was passed through a cell strainer with a pore size of 70 μm, and a cell suspension was obtained. This cell suspension was plated at a density of 1.3×10^5 cells/cm^2 on the astrocyte layer, and a co-culture was carried out using D-MEM/F-12 medium (Invitrogen) containing 10% heat-inactivated fetal calf serum and 5% horse serum (Invitrogen). 2 days after the start of the co-culture, cells were treated for 24 hours with 10 μM cytosine arabinoside in order to suppress the excessive cell proliferation of microglia and the like. 8 to 9 days after the start of the co-culture, cells were used for the test. Additionally, using one portion of the cells, immunofluorescent staining and nuclear staining was carried out with astrocyte recognizing antibodies (anti-GFAP) and neuron recognizing antibodies (anti-MAP2), in order to confirm that the present culture system is a co-culture system of astrocytes and neurons.
(§3) An astrocyte/neuron co-culture cultured on a 96 well plate was used in the test. A predetermined concentration of the test substance and hydrogen peroxide (250 μM) was simultaneously added to the cell culture in each well with continuing cultivation, and analysis was done 24 hours after this treatment. Using an LDH Cytotoxicity Detection Kit (Takara Bio), analysis was carried out in accordance with the included instruction manual, and the damage to the entire co-culture system by the hydrogen peroxide treatment and the protective effect (EC 50 value) of the test substance was evaluated. Further, the cell bodies and the neuronal processes of the neurons were observed by microscope, and the neuroprotective effect was evaluated.

[3] = test system: neurons in astrocyte/neuron co-culture; experiment: Brain cell damage induced by hydrogen peroxide treatment (neuroprotective effect, microscope observation); type: cell-based; details: Rattus norvegicus, hydrogen peroxide (250 μM), 24 hours, read-out: Concentration for complete inhibition of neuronal death
Protocol: as §1, §2, §3

Q: For `Cc1ccc(N2CCN(c3nc(N4CCOCC4)nc(N4CCOCC4)c3F)CC2)cc1` [Compound 99, 5-fluoro-4-[4-(4-methylphenyl)piperazin-1-yl]-2,6-dimorpholinopyrimidine], which IC50 [1] is on record?
A: 7.51 µM

Q: What about the EC50 [2] of the same compound?
A: 0.4 µM

Q: What about the EC100 [3] of the same compound?
A: 1 µM

Q: How did the IC50 [1] turn out when `Fc1c(N2CCOCC2)nc(N2CCOCC2)nc1N1CCc2ccccc2C1` [Compound 87, 5-fluoro-4-(3,4-dihydro-1H-isoquinolin-2-yl)-2,6-dimorpholinopyrimidine] was run?
A: 5.78 µM

Q: What about the EC50 [2] of the same compound?
A: 0.68 µM

Q: What about the EC100 [3] of the same compound?
A: 3 µM

Q: Which results are given for `Oc1ccc(N2CCN(c3nc(N4CCOCC4)cc(N4CCOCC4)n3)CC2)cc1` [Compound 30, 2-[4-(4-hydroxyphenyl)piperazin-1-yl]-4,6-dimorpholinopyrimidine]?
A: IC50 [1]: 6.84 µM; EC50 [2]: 3.01 µM; EC100 [3]: 10 µM

Q: What does the source list for `COc1ccc(/C=C/c2nc(NCCN3CCNCC3)c(N)c(N3CCOCC3)n2)cc1` [Compound 173, 5-amino-2-[2-(4-methoxyphenyl)vinyl]-4-morpholino-6-[2-(1-piperazinyl)ethylamino]pyrimidine]?
A: IC50 [1]: 2.08 µM; EC50 [2]: 4.72 µM; EC100 [3]: 30 µM

Q: What does the source list for `c1ccc(N2CCN(c3cc(N4CCOCC4)nc(N4CCN(c5ccccc5)CC4)n3)CC2)cc1` [Compound 57, 2,4-bis(4-phenylpiperazin-1-yl)-6-morpholinopyrimidine]?
A: IC50 [1]: 30.5 µM; EC50 [2]: 5.12 µM; EC100 [3]: 30 µM

Q: Which IC50 [1] does the source give for `Nc1c(N2CCOCC2)nc(N2CCC(Cc3ccccc3)CC2)nc1N1CCOCC1` [Compound 66, 5-amino-2-(4-benzylpiperidin-1-yl)-4,6-dimorpholinopyrimidine] here?
A: 0.82 µM

Q: And the EC50 [2]?
A: 2.86 µM

Q: And the EC100 [3]?
A: 30 µM

Q: How did the IC50 [1] turn out when `Nc1c(N2CCOCC2)nc(N2CCN(c3ccccn3)CC2)nc1N1CCOCC1` [Compound 75, 5-amino-4,6-dimorpholino-2-[4-(pyridin-2-yl)-piperazin-1-yl]pyrimidine] was run?
A: 0.67 µM

Q: And the EC50 [2]?
A: 9.46 µM

Q: `Fc1c(N2CCOCC2)nc(N2CCN(c3ccccc3)CC2)nc1N1CCOCC1` [Compound 82, 5-fluoro-4,6-dimorpholino-2-(4-phenylpiperazin-1-yl)pyrimidine] was tested. Which IC50 [1] did it give?
A: 9.2 µM

Q: And the EC50 [2]?
A: 0.6 µM

Q: What about the EC100 [3] of the same compound?
A: 3 µM

Q: How did the IC50 [1] turn out when `Fc1c(N2CCOCC2)nc(N2CCOCC2)nc1N1CCNC(c2ccccc2)C1` (stereo not shown) [Compound 94, 5-fluoro-2,4-dimorpholino-6-(3-phenylpiperazin-1-yl)pyrimidine] was run?
A: 16 µM

Q: What about the EC50 [2] of the same compound?
A: 0.68 µM

Q: And the EC100 [3]?
A: 3 µM

Q: Which results are given for `Nc1c(N2CCOCC2)nc(N2CCN(Cc3ccccc3)CC2)nc1N1CCOCC1` [Compound 73, 5-amino-2-(4-benzylpiperazin-1-yl)-4,6-dimorpholinopyrimidine]?
A: IC50 [1]: 0.69 µM; EC50 [2]: 10.6 µM

Q: For `CN(C)c1nc(N2CCOCC2)c(F)c(N2CCN(c3ccccn3)CC2)n1` [Compound 91, 2-dimethylamino-5-fluoro-6-morpholino-4-[4-(pyridin-2-yl)piperazin-1-yl]pyrimidine], which IC50 [1] is on record?
A: 5.88 µM

Q: What about the EC50 [2] of the same compound?
A: 0.88 µM

Q: What about the EC100 [3] of the same compound?
A: 10 µM

Q: What does the source list for `Fc1c(N2CCOCC2)nc(N2CCc3ccccc3C2)nc1N1CCOCC1` [Compound 122, 5-fluoro-4,6-dimorpholino-2-(1,2,3,4-tetrahydro-2H-isoquinolin-2-yl)pyrimidine]?
A: IC50 [1]: 5.48 µM; EC50 [2]: 0.29 µM; EC100 [3]: 1 µM

Q: Which results are given for `Nc1c(N2CCOCC2)nc(/C=C/c2ccc(N3CCCCC3)cc2)nc1N1CCOCC1` [Compound 136, 5-amino-4,6-dimorpholino-2-[2-(4-piperidinophenyl)vinyl]pyrimidine]?
A: IC50 [1]: 1.69 µM; EC50 [2]: 0.73 µM; EC100 [3]: 3 µM

Q: How did the IC50 [1] turn out when `Cc1ccc(N2CCN(c3nc(N4CCNCC4)nc(N4CCOCC4)c3F)CC2)cc1` [Compound 149, 5-fluoro-4-[4-(4-methylphenyl)piperazin-1-yl]-6-morpholino-2-(1-piperazinyl)pyrimidine] was run?
A: 9.75 µM

Q: And the EC50 [2]?
A: 0.42 µM

Q: And the EC100 [3]?
A: 10 µM

Q: With `Nc1c(N2CCOCC2)nc(N2CCN(c3ccccc3)CC2)nc1N1CCOCC1` [Compound 63, 5-amino-4,6-dimorpholino-2-(4-phenylpiperazin-1-yl)pyrimidine] as the compound, how does the IC50 [1] read?
A: 0.81 µM

Q: What about the EC50 [2] of the same compound?
A: 8.3 µM

Q: And the EC100 [3]?
A: 30 µM

Q: For `CN(C)c1nc(N2CCOCC2)c(F)c(N2CCN(c3ccccc3Cl)CC2)n1` [Compound 110, 4-[4-(2-chlorophenyl)piperazin-1-yl]-2-dimethylamino-5-fluoro-6-morpholinopyrimidine], which IC50 [1] is on record?
A: 3.02 µM

Q: What about the EC50 [2] of the same compound?
A: 0.33 µM

Q: And the EC100 [3]?
A: 1 µM

Q: With `COc1ccc(/C=C/c2nc(NCC(N)=O)c(N)c(N3CCOCC3)n2)cc1` [Compound 206, 5-amino-4-carbamoylmethylamino-2-[2-(4-methoxyphenyl)vinyl]-6-morpholinopyrimidine] as the compound, how does the EC50 [2] read?
A: 4.85 µM

Q: And the EC100 [3]?
A: 10 µM

Q: How did the EC50 [2] turn out when `Cc1ccc(N2CCN(c3nc(N4CCOCC4)c(F)c(N4CCN(C(=O)OC(C)(C)C)CC4)n3)CC2)cc1` [Compound 153, 4-[4-(tert-butoxycarbonyl)piperazin-1-yl]-5-fluoro-2-[4-(4-methylphenyl)piperazin-1-yl]-6-morpholinopyrimidine] was run?
A: 0.45 µM

Q: And the EC100 [3]?
A: 3 µM

Q: `CCOC(=O)C1CSCCN1c1nc(/C=C/c2ccc(OC)cc2)nc(N2CCOCC2)c1N` (stereo not shown) [Compound 209, 5-amino-4-(3-ethoxycarbonylthiomorpholin-4-yl)-2-[2-(4-methoxyphenyl)vinyl]-6-morpholinopyrimidine] was tested. Which EC50 [2] did it give?
A: 1.48 µM

Q: And the EC100 [3]?
A: 10 µM

Q: What does the source list for `Fc1c(N2CCOCC2)nc(N2CCN(C3CCCCC3)CC2)nc1N1CCOCC1` [Compound 123, 2-(4-cyclohexylpiperazin-1-yl)-5-fluoro-4,6-dimorpholinopyrimidine]?
A: EC50 [2]: 2.98 µM; EC100 [3]: 10 µM

Q: What does the source list for `Cc1cccc(N2CCN(c3nc(N4CCNCC4)nc(N4CCOCC4)c3F)CC2)c1C` [Compound 178, 5-fluoro-4-morpholino-2-(1-piperazinyl)-6-[4-(2,3-xylyl)piperazin-1-yl]pyrimidine]?
A: EC50 [2]: 0.48 µM; EC100 [3]: 3 µM

Q: What does the source list for `c1ccc(N2CCN(c3nc(N4CCNCC4)cc(N4CCOCC4)n3)CC2)cc1` [Compound 52, 4-morpholino-2-(4-phenylpiperazin-1-yl)-6-(piperazin-1-yl)pyrimidine]?
A: EC50 [2]: 3.16 µM; EC100 [3]: 30 µM

Q: Which IC50 [1] does the source give for `Cc1ccc(N2CCN(c3nc(N4CCN(C)CC4)nc(N4CCOCC4)c3F)CC2)cc1` [Compound 151, 5-fluoro-4-[4-(4-methylphenyl)piperazin-1-yl]-2-(4-methylpiperazin-1-yl)-6-morpholinopyrimidine] here?
A: 8.41 µM

Q: And the EC50 [2]?
A: 0.98 µM

Q: Which results are given for `COc1ccc(/C=C/c2nc(NCCN3CCOCC3)c(N)c(N3CCOCC3)n2)cc1` [Compound 207, 5-amino-2-[2-(4-methoxyphenyl)vinyl]-4-morpholino-6-(2-morpholinoethylamino)pyrimidine]?
A: EC50 [2]: 5.8 µM; EC100 [3]: 10 µM

Q: What does the source list for `Cc1ccc(N2CCN(c3nc(NCCN4CCNCC4)nc(N4CCOCC4)c3F)CC2)cc1` [Compound 158, 5-fluoro-4-[4-(4-methylphenyl)piperazin-1-yl]-6-morpholino-2-[2-(piperazin-1-yl)-ethylamino]pyrimidine]?
A: EC50 [2]: 0.16 µM; EC100 [3]: 1 µM
